Biological target: T1, hTRPM8 (Homo sapiens, UniProt Q7Z2W7)
T1 construct: expressed in transfected cells
Assay: Assay on TRPM8 modulators: calcium imaging (Fluo-4, Flexstation) in HEK293 cell line stably expressing hTRPM8
Type: cell-based
Details: HEK293 cells stably expressing hTRPM8; calcium influx, Fluo-4, Flexstation 3; sigmoidal dose-response fit
Method: A HEK293 cell line stably expressing hTRPM8 was generated according to Klein of at, (Chem. Senses 36: […], 2011) and receptor activation was monitored by calcium imaging in a Flexstation. For Ca-imaging assays of TRPM8 channel activation, cells were seeded on day 0 at a density of 12000 cells per well in Dulbecco's modified Eagle medium (DMEM) containing 9% foetal bovine serum in black, clear bottom 96-well plates that had been coated with 0.001% polyethyleneimine (molecular weight=60 000, Acros Organics). On day 2, agonists were evaluated via calcium imaging using Fluo-4. Briefly, growth medium was discarded, and the cells were incubated in the dark for 1 h at 37° C. in 50 μL loading buffer consisting of 2.7 μM Fluo-4 AM (Invitrogen) and […] probenecid (Sigma-Aldrich) in DMEM (without serum). After incubation, the plates were washed five times with 100 μL of assay buffer (in mM: 130 NaCl, 5 KCl, 10 HEPES, 2 CaCl2, and 10 glucose, pH7.4.) and further incubated in the dark at room temperature for 30 min. The cells were then washed five times with 100 μL assay buffer and then calcium influx to serial dilutions of inventive compounds were measured in a Flexstation 3 (Molecular Devices). Receptor activation was initiated following addition of 20 μl of a 10-fold concentrated ligand stock solution, which is also prepared in assay buffer. Fluorescence was continuously monitored for 15 seconds prior to ligand addition and for 105 seconds after ligand addition, for a total of 120 seconds. Maximal receptor activation in relation to solvent control and relative to 31.6 μM menthol is determined. Data from serial dilutions were processed with a KNIME workflow to fit a sigmoidal dose-response curve and to extrapolate […].

T1 sequence (Q7Z2W7 whole entry): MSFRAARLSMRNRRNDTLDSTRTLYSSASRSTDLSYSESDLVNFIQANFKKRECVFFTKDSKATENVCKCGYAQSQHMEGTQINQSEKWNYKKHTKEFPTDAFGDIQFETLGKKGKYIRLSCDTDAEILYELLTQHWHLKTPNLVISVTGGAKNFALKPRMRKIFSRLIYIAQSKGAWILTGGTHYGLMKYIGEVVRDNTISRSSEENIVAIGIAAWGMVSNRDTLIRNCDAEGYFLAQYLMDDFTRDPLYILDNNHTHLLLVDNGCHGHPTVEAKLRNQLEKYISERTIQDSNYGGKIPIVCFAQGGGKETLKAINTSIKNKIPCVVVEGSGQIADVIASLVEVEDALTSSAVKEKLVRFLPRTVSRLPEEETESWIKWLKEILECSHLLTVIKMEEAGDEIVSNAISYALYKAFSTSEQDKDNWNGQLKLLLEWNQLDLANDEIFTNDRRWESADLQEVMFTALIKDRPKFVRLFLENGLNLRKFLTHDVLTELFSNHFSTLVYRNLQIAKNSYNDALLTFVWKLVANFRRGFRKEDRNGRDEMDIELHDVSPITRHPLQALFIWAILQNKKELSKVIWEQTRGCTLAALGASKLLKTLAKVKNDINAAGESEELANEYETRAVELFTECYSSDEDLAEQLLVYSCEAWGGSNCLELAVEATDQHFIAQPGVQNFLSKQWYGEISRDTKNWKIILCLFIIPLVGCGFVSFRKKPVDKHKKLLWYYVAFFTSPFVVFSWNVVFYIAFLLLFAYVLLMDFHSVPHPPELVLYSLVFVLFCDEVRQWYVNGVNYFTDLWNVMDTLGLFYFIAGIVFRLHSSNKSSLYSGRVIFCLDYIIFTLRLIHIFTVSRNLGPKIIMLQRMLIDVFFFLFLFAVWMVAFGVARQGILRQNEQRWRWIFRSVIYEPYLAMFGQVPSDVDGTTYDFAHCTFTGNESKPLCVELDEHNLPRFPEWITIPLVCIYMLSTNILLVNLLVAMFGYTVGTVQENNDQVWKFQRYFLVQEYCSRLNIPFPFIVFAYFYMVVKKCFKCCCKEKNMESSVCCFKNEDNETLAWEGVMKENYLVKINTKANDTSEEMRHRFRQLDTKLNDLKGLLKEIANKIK

| Structure (SMILES) | EC50 |
| --- | --- |
| CSC(C)C(=O)N1CCCCC1c1nc(-c2ccc(F)cc2)c[nH]1 (stereo not drawn) [Compound 38, 1-(2-(4-(4-fluorophenyl)-1H-imidazol-2-yl)piperidin-1-yl)-2-(methylthio)propan-1-one] | < 50 nM |
| CSC(C)C(=O)N1CCCCC1c1nc(-c2ccc(O)cc2)c[nH]1 (stereo not drawn) [Compound 39, 1-(2-(4-(4-hydroxyphenyl)-1H-imidazol-2-yl)piperidin-1-yl)-2-(methylthio)propan-1-one] | < 50 nM |
| CSC(C)C(=O)N1CCCCC1c1nc(-c2ccc(C(C)C)cc2)c[nH]1 (stereo not drawn) [Compound 40, 1-(2-(4-(4-isopropylphenyl)-1H-imidazol-2-yl)piperidin-1-yl)-2-(methylthio)propan-1-one] | < 50 nM |
| CSC(C)C(=O)N1CCCCC1c1nc(-c2ccc(C)c(C(F)(F)F)c2)c[nH]1 (stereo not drawn) [Compound 41, 1-(2-(4-(4-methyl-3-(trifluoromethyl)phenyl)-1H-imidazol-2-yl)piperidin-1-yl)-2-(methylthio)propan-1-one] | 50 to 300 nM |
| CSC(C)C(=O)N1CCCCC1c1nc(-c2ccc(CN(C)C)s2)c[nH]1 (stereo not drawn) [Compound 42, 1-(2-(4-(5-((dimethylamino)methyl)thiophen-2-yl)-1H-imidazol-2-yl)piperidin-1-yl)-2-(methylthio)propan-1-one] | 1000 to 35000 nM |
| CSC(C)C(=O)N1CCCCC1c1nc(-c2ccc(C)o2)c[nH]1 (stereo not drawn) [Compound 43, 1-(2-(4-(5-methylfuran-2-yl)-1H-imidazol-2-yl)piperidin-1-yl)-2-(methylthio)propan-1-one] | < 50 nM |
| CSC(C)C(=O)N1CCCCC1c1nc(-c2cncc(C)c2)c[nH]1 (stereo not drawn) [Compound 44, 1-(2-(4-(5-methylpyridin-3-yl)-1H-imidazol-2-yl)piperidin-1-yl)-2-(methylthio)propan-1-one] | 50 to 300 nM |
| CSC(C)C(=O)N1CCCCC1c1nc(-c2ccc3ccsc3c2)c[nH]1 (stereo not drawn) [Compound 46, 1-(2-(4-(benzo[b]thiophen-6-yl)-1H-imidazol-2-yl)piperidin-1-yl)-2-(methylthio)propan-1-one] | < 50 nM |
| O=C(CSC(F)(F)F)N1CCCCC1c1nc(-c2ccccc2)c[nH]1 (stereo not drawn) [Compound 48, 1-(2-(4-phenyl-1H-imidazol-2-yl)piperidin-1-yl)-2-((trifluoromethyl)thio)ethan-1-one] | 1000 to 35000 nM |
| CCCC(=O)N1CCCCC1c1nc(-c2ccccc2)c[nH]1 (stereo not drawn) [Compound 49, 1-(2-(4-phenyl-1H-imidazol-2-yl)piperidin-1-yl)butan-1-one] | 300 to 1000 nM |
| C=CC=CCC(=O)N1CCCCC1c1nc(-c2ccccc2)c[nH]1 (stereo not drawn) [Compound 50, 1-(2-(4-phenyl-1H-imidazol-2-yl)piperidin-1-yl)hexa-3,5-dien-1-one] | 1000 to 35000 nM |
| C=CCCC(=O)N1CCCCC1c1nc(-c2ccccc2)c[nH]1 (stereo not drawn) [Compound 51, 1-(2-(4-phenyl-1H-imidazol-2-yl)piperidin-1-yl)pent-4-en-1-one] | 300 to 1000 nM |
| CCC(=O)N1CCCCC1c1nc(-c2ccccc2)c[nH]1 (stereo not drawn) [Compound 52, 1-(2-(4-phenyl-1H-imidazol-2-yl)piperidin-1-yl)propan-1-one] | 1000 to 35000 nM |

Other lines, results leading:

| EC50 | Structure (SMILES) |
| --- | --- |
| < 50 nM | CSC(C)C(=O)N1CCCCC1c1nc(-c2ccc(C)nc2)c[nH]1 (stereo not drawn) [Compound 45, 1-(2-(4-(6-methylpyridin-3-yl)-1H-imidazol-2-yl)piperidin-1-yl)-2-(methylthio)propan-1-one] |
| 50 to 300 nM | CSC(C)C(=O)N1CCCCC1c1nc(C)c(-c2ccccc2)[nH]1 (stereo not drawn) [Compound 47, 1-(2-(4-methyl-5-phenyl-1H-imidazol-2-yl)piperidin-1-yl)-2-(methylthio)propan-1-one] |
| 50 to 300 nM | CSC(C)C(=O)N1CCCCC1c1ncc(-c2cccc(F)c2F)[nH]1 (stereo not drawn) [Compound 53, 1-(2-(5-(2,3-difluorophenyl)-1H-imidazol-2-yl)piperidin-1-yl)-2-(methylthio)propan-1-one] |
| < 50 nM | CSC(C)C(=O)N1CCCCC1c1ncc(-c2ccc(F)cc2F)[nH]1 (stereo not drawn) [Compound 54, 1-(2-(5-(2,4-difluorophenyl)-1H-imidazol-2-yl)piperidin-1-yl)-2-(methylthio)propan-1-one] |
| < 50 nM | CSC(C)C(=O)N1CCCCC1c1ncc(-c2cc(F)ccc2F)[nH]1 (stereo not drawn) [Compound 55, 1-(2-(5-(2,5-difluorophenyl)-1H-imidazol-2-yl)piperidin-1-yl)-2-(methylthio)propan-1-one] |
| < 50 nM | COc1ccc(-c2cnc(C3CCCCN3C(=O)C(C)SC)[nH]2)c(F)c1 (stereo not drawn) [Compound 56, 1-(2-(5-(2-fluoro-4-methoxyphenyl)-1H-imidazol-2-yl)piperidin-1-yl)-2-(methylthio)propan-1-one] |
| < 50 nM | CSC(C)C(=O)N1CCCCC1c1ncc(-c2ccc(C)cc2F)[nH]1 (stereo not drawn) [Compound 57, 1-(2-(5-(2-fluoro-4-methylphenyl)-1H-imidazol-2-yl)piperidin-1-yl)-2-(methylthio)propan-1-one] |
| 300 to 1000 nM | COc1ncc(-c2cnc(C3CCCCN3C(=O)C(C)SC)[nH]2)cn1 (stereo not drawn) [Compound 58, 1-(2-(5-(2-methoxypyrimidin-5-yl)-1H-imidazol-2-yl)piperidin-1-yl)-2-(methylthio)propan-1-one] |
| 50 to 300 nM | CNc1cccc(-c2cnc(C3CCCCN3C(=O)C(C)SC)[nH]2)c1 (stereo not drawn) [Compound 59, 1-(2-(5-(3-(methylamino)phenyl)-1H-imidazol-2-yl)piperidin-1-yl)-2-(methylthio)propan-1-one] |
| < 50 nM | CSC(C)C(=O)N1CCCCC1c1ncc(-c2ccc(F)c(F)c2)[nH]1 (stereo not drawn) [Compound 60, 1-(2-(5-(3,4-difluorophenyl)-1H-imidazol-2-yl)piperidin-1-yl)-2-(methylthio)propan-1-one] |
| < 50 nM | C=CC(C)C(=O)N1CCCCC1c1ncc(-c2ccc(F)c(F)c2)[nH]1 (stereo not drawn) [Compound 61, 1-(2-(5-(3,4-difluorophenyl)-1H-imidazol-2-yl)piperidin-1-yl)-2-methylbut-3-en-1-one] |
| 1000 to 35000 nM | COc1ccc(-c2cnc(C3CCCCN3C(=O)C(C)SC)[nH]2)cc1OC (stereo not drawn) [Compound 62, 1-(2-(5-(3,4-dimethoxyphenyl)-1H-imidazol-2-yl)piperidin-1-yl)-2-(methylthio)propan-1-one] |
| < 50 nM | CSC(C)C(=O)N1CCCCC1c1ncc(-c2ccc(C)c(C)c2)[nH]1 (stereo not drawn) [Compound 63, 1-(2-(5-(3,4-dimethylphenyl)-1H-imidazol-2-yl)piperidin-1-yl)-2-(methylthio)propan-1-one] |
| 50 to 300 nM | COCc1ccc(-c2cnc(C3CCCCN3C(=O)C(C)SC)[nH]2)cc1F (stereo not drawn) [Compound 64, 1-(2-(5-(3-fluoro-4-(methoxymethyl)phenyl)-1H-imidazol-2-yl)piperidin-1-yl)-2-(methylthio)propan-1-one] |
| < 50 nM | CSC(C)C(=O)N1CCCCC1c1ncc(-c2ccc(C)c(F)c2)[nH]1 (stereo not drawn) [Compound 65, 1-(2-(5-(3-fluoro-4-methylphenyl)-1H-imidazol-2-yl)piperidin-1-yl)-2-(methylthio)propan-1-one] |
| < 50 nM | CSC(C)C(=O)N1CCCCC1c1ncc(-c2cccc(F)c2)[nH]1 (stereo not drawn) [Compound 66, 1-(2-(5-(3-fluorophenyl)-1H-imidazol-2-yl)piperidin-1-yl)-2-(methylthio)propan-1-one] |
| 1000 to 35000 nM | COc1nscc1-c1cnc(C2CCCCN2C(=O)C(C)SC)[nH]1 (stereo not drawn) [Compound 67, 1-(2-(5-(3-methoxyisothiazol-4-yl)-1H-imidazol-2-yl)piperidin-1-yl)-2-(methylthio)propan-1-one] |
